{
  "source": "patent US8299037B2",
  "about": "“Feed or pharmaceutical composition comprising apramycin or an adequate salt thereof” (Poulpharm B.V.B.A., priority 2007, dated 2012)",
  "key": {"Histomonas meleagridis [1]": {"tested_on": "Histomonas meleagridis", "conditions": "cited from earlier work"}, "Histomonas meleagridis [2]": {"tested_on": "Histomonas meleagridis", "assay": "Prophylaxis of histomoniasis in turkey poults inoculated intracloacally, apramycin in feed (Example 1)", "type": "in vivo", "conditions": "live weight at the end of the study; 550 g/MT of feed, turkeys"}, "Histomonas meleagridis [3]": {"tested_on": "Histomonas meleagridis", "assay": "Prophylaxis of histomoniasis in turkey poults inoculated intracloacally, apramycin in feed (Example 1)", "type": "in vivo, turkeys", "text": "The objective of the study was to investigate the activity of apramycin as prophylactic agent against a Histomonas meleagridis strain isolated from an outbreak of histomoniasis in turkeys in Belgium (September 2005). The antibiotic (apramycin) was supplemented through the feed at 550 g of the test product/MT of feed (Ap 550) in the challenged birds. This medicated group was compared with an Infected Untreated Control (IUC) and an Uninfected Untreated Control group (UUC).\nSeventy five (75) one day old male animals (turkey poults) were enrolled in the study and randomly allocated to 3 groups of 25 animals per pen. During the whole study (from day 1 to day 38), Treatment 1 (UUC) and 2 (IUC) received standard animal (turkey) feed without supplementation, whereas Treatment 3, received feed supplemented with apramycin sulphate. On day 22, Treatments 2 and 3 were inoculated intracloacally with Histomonas meleagridis. From that day one, the animals were clinically observed on a daily base. At the end of the study, D38, all remaining animals were euthanized and necropsied and lesion scored for caeca and liver.\nAll animals (turkeys) died during the challenge period were necropsied to determine the cause of death. […] (see Table 1 and FIG. 1)."}, "Histomonas meleagridis [4]": {"tested_on": "Histomonas meleagridis", "conditions": "turkeys; cited from earlier work"}, "[5]": {"conditions": "300 ppm, inoculated broiler chickens"}, "[6]": {"conditions": "necropsy, 550 g/MT of feed, turkeys"}},
  "note": "Entries after “also recorded” stand apart in the source; their conditions may differ.",
  "data": [
    {"smiles": "CN[C@@H]1[C@@H](O[C@H]2O[C@H](CO)[C@@H](N)[C@H](O)[C@H]2O)OC2C[C@@H](N)[C@@H](O[C@H]3[C@H](O)[C@@H](O)[C@H](N)C[C@@H]3N)OC2[C@@H]1O", "note": "(stereo partly drawn) [Ap 550, Apramycin]", "values": [
      {"measurement": "In-vivo use against histomoniasis (in words)", "setting": "Histomonas meleagridis [1]; 300 ppm in broilers", "value": "ineffective"},
      {"measurement": "Weight gain (in words)", "setting": "Histomonas meleagridis [1]; 300 ppm in broilers", "value": "no amelioration"},
      {"measurement": "Caecal histomoniasis lesions (in words)", "setting": "Histomonas meleagridis [1]; [5]", "value": "No amelioration"},
      {"measurement": "Liver lesions / liver lesion scores (in words)", "setting": "Histomonas meleagridis [1]; [5]", "value": "some reduction"},
      {"measurement": "Average Weight at D40", "setting": "Histomonas meleagridis [2]", "value": 1.40, "unit": "kg"},
      {"measurement": "Mortality due to histomoniasis (% Cumulative)", "setting": "Histomonas meleagridis [3]; D 7 PI, 550 g/MT of feed, turkeys", "value": 0.00, "unit": "%"},
      {"measurement": "Mortality due to histomoniasis (% Cumulative)", "setting": "Histomonas meleagridis [3]; D 8 PI, 550 g/MT of feed, turkeys", "value": 0.00, "unit": "%"},
      {"measurement": "Mortality due to histomoniasis (% Cumulative)", "setting": "Histomonas meleagridis [3]; D 9 PI, 550 g/MT of feed, turkeys", "value": 0.00, "unit": "%"},
      {"measurement": "Mortality due to histomoniasis (% Cumulative)", "setting": "Histomonas meleagridis [3]; D 10 PI, 550 g/MT of feed, turkeys", "value": 0.00, "unit": "%"},
      {"measurement": "Mortality due to histomoniasis (% Cumulative)", "setting": "Histomonas meleagridis [3]; D11 PI, 550 g/MT of feed, turkeys", "value": 0.00, "unit": "%"},
      {"measurement": "Mortality due to histomoniasis (% Cumulative)", "setting": "Histomonas meleagridis [3]; D 12 PI, 550 g/MT of feed, turkeys", "value": 0.00, "unit": "%"},
      {"measurement": "Mortality due to histomoniasis (% Cumulative)", "setting": "Histomonas meleagridis [3]; D 13 PI, 550 g/MT of feed, turkeys", "value": 0.00, "unit": "%"},
      {"measurement": "Mortality due to histomoniasis (% Cumulative)", "setting": "Histomonas meleagridis [3]; D 14 PI, 550 g/MT of feed, turkeys", "value": 0.00, "unit": "%"},
      {"measurement": "Mortality due to histomoniasis (% Cumulative)", "setting": "Histomonas meleagridis [3]; D 15 PI, 550 g/MT of feed, turkeys", "value": 0.00, "unit": "%"},
      {"measurement": "Mortality due to histomoniasis (% Cumulative)", "setting": "Histomonas meleagridis [3]; D 16 PI, 550 g/MT of feed, turkeys", "value": 0.00, "unit": "%"},
      {"measurement": "Mortality during the challenge period (in words)", "setting": "Histomonas meleagridis [3]; inoculated turkeys, apramycin continuously in the feed", "value": "significant effect in reducing the mortality; also recorded: not a single animal died"},
      {"measurement": "Mean lesion score at necropsy, Caecum score", "setting": "Histomonas meleagridis [3]; [6]", "value": 0.45},
      {"measurement": "Mean lesion score at necropsy, Liver score", "setting": "Histomonas meleagridis [3]; [6]", "value": 0.00},
      {"measurement": "Protection against the infection by Histomonas meleagridis (in words)", "setting": "Histomonas meleagridis [3]; turkeys, 550 g/MT of feed", "value": "does provide active protection"},
      {"measurement": "Liver and caecal lesion scores (in words)", "setting": "Histomonas meleagridis [3]; turkeys, apramycin continuously in the feed", "value": "reduced significantly"},
      {"measurement": "Treatment effect on histomoniasis (in words)", "setting": "Histomonas meleagridis [4]", "value": "No significant treatment effect"}
    ]}
  ]
}
